Drawing on PubChem BioAssay (NCI), this text covers GI50 and TGI for eleven compounds.

Test systems include NCI/ADR-RES ovarian; HT29 colon; UACC-257 melanoma; HOP-92 NSCLC; U251 CNS; OVCAR-5 ovarian; KM12 colon; MOLT-4 leukemia; A549 NSCLC; COLO 205 colon.
What all share (assay): NCI-60 cell line screen, 48 h

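Test compounds were applied to cells in 96-well plates for 48 hours at 5 doses. Abbreviation: GI50, concentration required for 50% inhibition of growth. TGI: total growth inhibition.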

On to `COC(=O)[C@]12CCC(C)(C)C[C@H]1C1=CC[C@@H]3[C@@]4(C)C/C(=C/c5cccnc5)C(=O)C(C)(C)[C@@H]4CC[C@@]3(C)[C@]1(C)CC2`, for which the GI50 in the experiment on NCI/ADR-RES ovarian is 6.75 µM; with HT29 colon, 5 µM; in the experiment with UACC-257 melanoma, 12.5 µM; in the experiment on HOP-92 NSCLC, 1.87 µM; in the experiment on U251 CNS it was 13.5 µM; in the experiment on OVCAR-5 ovarian, 14.1 µM. For the same compound, the GI50 with KM12 colon is 5.06 µM; in the experiment on MOLT-4 leukemia, 2.12 µM; in the experiment on A549 NSCLC, 11.9 µM; in the experiment with COLO 205 colon, 6.51 µM. Besides, the TGI in the experiment with NCI/ADR-RES ovarian was 32.5 µM; in the experiment with HT29 colon it was 65.9 µM; in the experiment with UACC-257 melanoma it was 42.8 µM; with HOP-92 NSCLC, 8.41 µM; with U251 CNS it was 46.9 µM; in the experiment with OVCAR-5 ovarian it was 38.2 µM. The TGI in the experiment on KM12 colon is 19.9 µM; with MOLT-4 leukemia, 6.17 µM; in the experiment on A549 NSCLC, over 100 µM; in the experiment with COLO 205 colon, 25.3 µM.

On to `COc1cc([C@@H]2c3cc4c(cc3C(O[C@@H]3O[C@@H]5CO[C@@H](c6cccs6)OC5[C@H](O)[C@H]3O)C3COC(=O)[C@@H]32)OCO4)cc(OC)c1O` (stereo not given in full), for which the GI50 in the experiment with NCI/ADR-RES ovarian was 5.22 µM; in the experiment on HT29 colon, 0.123 µM; in the experiment with UACC-257 melanoma, 0.154 µM; in the experiment with HOP-92 NSCLC it was 0.0461 µM; in the experiment with U251 CNS it was 0.0256 µM; in the experiment on OVCAR-5 ovarian, 0.382 µM. The GI50 in the experiment with KM12 colon was 0.118 µM; in the experiment on MOLT-4 leukemia, under 0.005 µM; with A549 NSCLC, 0.0209 µM; in the experiment with COLO 205 colon, 0.0984 µM. Also, the TGI with NCI/ADR-RES ovarian was found to be 50 µM; with HT29 colon, 1.1 µM; in the experiment with UACC-257 melanoma it was 2.11 µM; in the experiment with HOP-92 NSCLC it was 1.25 µM; in the experiment with U251 CNS, 1.37 µM; in the experiment with OVCAR-5 ovarian, 5.3 µM. Besides, the TGI came out at 0.796 µM with KM12 colon, 0.0284 µM in the experiment on MOLT-4 leukemia, 0.822 µM in the experiment with A549 NSCLC and 0.809 µM in the experiment on COLO 205 colon.

`COc1ccc(OC(=O)O[C@H]2[C@H](O[C@H]3[C@@H](O)COC(O[C@H]4C[C@H]5[C@@H]6CC=C7C[C@@H](O)CC[C@]7(C)[C@H]6CC[C@]5(C)[C@H]4[C@H](C)C(=O)CCC(C)C)[C@@H]3OC(C)=O)OC[C@@H](O)[C@@H]2O)cc1` (stereo not given in full): the GI50 is 13 µM with NCI/ADR-RES ovarian; 0.541 µM with HT29 colon; 0.172 µM in the experiment with UACC-257 melanoma; 0.013 µM with HOP-92 NSCLC; 0.0121 µM in the experiment on U251 CNS; 0.89 µM in the experiment with OVCAR-5 ovarian. Moreover, the GI50 with KM12 colon is 0.682 µM; in the experiment with MOLT-4 leukemia, 0.0153 µM; in the experiment on A549 NSCLC it was 0.145 µM; with COLO 205 colon, 0.164 µM. The TGI is over 100 µM with NCI/ADR-RES ovarian; 18.1 µM with HT29 colon; 0.52 µM in the experiment with UACC-257 melanoma; 2.72 µM in the experiment on HOP-92 NSCLC; 16.2 µM in the experiment with U251 CNS; 15.9 µM with OVCAR-5 ovarian. In addition, the TGI in the experiment on KM12 colon stood at 19.7 µM; with A549 NSCLC, 21.9 µM; with COLO 205 colon it was 1.16 µM.

As for `CC(=O)[O][Hg][c]1c(C)c(C)c(C)c(C)c1C`, the GI50 with NCI/ADR-RES ovarian is 7.17 µM; with HT29 colon, 2.02 µM; with UACC-257 melanoma, 1.73 µM; in the experiment on HOP-92 NSCLC, 1.6 µM; in the experiment on U251 CNS it was 0.399 µM; in the experiment with OVCAR-5 ovarian it was 3.33 µM. For the same compound, the GI50 in the experiment with KM12 colon was 4.06 µM; in the experiment with MOLT-4 leukemia, 0.223 µM; with A549 NSCLC, 10.7 µM; with COLO 205 colon it was 2.7 µM. The TGI in the experiment with NCI/ADR-RES ovarian came to 33.4 µM; with HT29 colon, 4.77 µM; in the experiment on UACC-257 melanoma, 3.45 µM; in the experiment on HOP-92 NSCLC it was 3.12 µM; in the experiment with U251 CNS it was 1.61 µM; in the experiment on OVCAR-5 ovarian, 8.74 µM. Moreover, the TGI with KM12 colon stood at 15.3 µM; with MOLT-4 leukemia, 1.11 µM; with A549 NSCLC, 27.8 µM; in the experiment with COLO 205 colon it was 7.14 µM.

`CNC1C(=O)C(C)C(O)(C(CC(C)C(O)/C=C/C=C/CNC(=O)C(C)(C)C(O)\C(C)=C/C=C\C=C\Cc2cnc(C)o2)OC)C12C(=O)OC2COC` (stereo not given) (tested in a mixture with another compound): the TGI in the experiment on NCI/ADR-RES ovarian is over 100 µM; in the experiment with HT29 colon, 20.7 µM; in the experiment with UACC-257 melanoma, over 100 µM; in the experiment on HOP-92 NSCLC, over 51.3 µM; in the experiment with U251 CNS, over 52.2 µM; in the experiment with OVCAR-5 ovarian, over 70.2 µM. Also, the TGI was 26.1 µM in the experiment with KM12 colon, 35.8 µM in the experiment on MOLT-4 leukemia, over 100 µM in the experiment with A549 NSCLC and 20.2 µM with COLO 205 colon.

Regarding `COc1ccc(-c2nc(-c3nc4ccc(C)cc4[nH]3)c3ccccn23)cc1`, the GI50 is 2.71 µM with NCI/ADR-RES ovarian; 3.36 µM with HT29 colon; 2.41 µM in the experiment on UACC-257 melanoma; 0.416 µM with HOP-92 NSCLC; 3.27 µM with U251 CNS; 4.69 µM in the experiment on OVCAR-5 ovarian. Besides, the GI50 was 2.38 µM in the experiment with KM12 colon, 2.17 µM in the experiment on MOLT-4 leukemia, 2.67 µM in the experiment with A549 NSCLC and 3.23 µM in the experiment with COLO 205 colon. Also, the TGI in the experiment with NCI/ADR-RES ovarian was 8.06 µM; in the experiment with HT29 colon it was over 100 µM; in the experiment with UACC-257 melanoma, 6.17 µM; with HOP-92 NSCLC, 4.36 µM; in the experiment with U251 CNS, over 100 µM; in the experiment on OVCAR-5 ovarian, over 100 µM. The TGI with KM12 colon is 9.07 µM; in the experiment on MOLT-4 leukemia, 7.99 µM; with A549 NSCLC it was over 100 µM; in the experiment on COLO 205 colon, over 100 µM.

Take `O=c1[nH]c(=O)n(C2CC(O)C(CS)O2)cc1F` (stereo not given): the TGI with NCI/ADR-RES ovarian is over 11.7 µM; with HT29 colon, over 100 µM; with UACC-257 melanoma, over 100 µM; in the experiment on HOP-92 NSCLC it was over 96.7 µM; with U251 CNS, over 100 µM; in the experiment on OVCAR-5 ovarian, over 100 µM. Besides, the TGI in the experiment with KM12 colon, in the experiment with MOLT-4 leukemia, with A549 NSCLC and with COLO 205 colon was over 100 µM throughout.

Turning to `C=C1C(=O)O[C@H]2[C@H]1CC/C(COC(=O)/C=C\C(=O)NCc1ccc(Cn3c(=O)sn(-c4ccc(C#N)cc4)c3=O)cc1)=C\CC[C@@]1(C)O[C@@H]21`, the GI50 in the experiment on NCI/ADR-RES ovarian was 1.39 µM; with HT29 colon, 0.474 µM; in the experiment with UACC-257 melanoma, 0.812 µM; in the experiment on HOP-92 NSCLC, 0.622 µM; in the experiment on U251 CNS, 0.759 µM; with OVCAR-5 ovarian, 0.868 µM. For the same compound, the GI50 was 0.9 µM in the experiment with KM12 colon, 0.84 µM in the experiment with MOLT-4 leukemia, 0.916 µM in the experiment with A549 NSCLC and 0.541 µM with COLO 205 colon. Also, the TGI in the experiment on NCI/ADR-RES ovarian is 5.97 µM; with HT29 colon, 1.9 µM; with UACC-257 melanoma it was 1.66 µM; in the experiment with HOP-92 NSCLC, 1.45 µM; in the experiment on U251 CNS, 1.62 µM; in the experiment on OVCAR-5 ovarian it was 1.84 µM. Moreover, the TGI in the experiment with KM12 colon is 1.84 µM; in the experiment on MOLT-4 leukemia it was 4.82 µM; in the experiment with A549 NSCLC, 2.42 µM; in the experiment on COLO 205 colon it was 1.41 µM.

In the case of `COc1ccc(-n2cc(-c3cc(OC)c(OC)c(OC)c3)[nH]c2=S)cc1OC`, the GI50 in the experiment on NCI/ADR-RES ovarian, in the experiment on HT29 colon, in the experiment on UACC-257 melanoma, with HOP-92 NSCLC, in the experiment with U251 CNS and with OVCAR-5 ovarian was over 100 µM in each case. Further, the GI50 in the experiment with KM12 colon was over 100 µM; with MOLT-4 leukemia, 7.04 µM; in the experiment with A549 NSCLC, over 100 µM; in the experiment on COLO 205 colon, over 100 µM. The TGI in the experiment on NCI/ADR-RES ovarian, in the experiment with HT29 colon, in the experiment on UACC-257 melanoma, with HOP-92 NSCLC, with U251 CNS and with OVCAR-5 ovarian was over 100 µM each time. The TGI with KM12 colon, in the experiment on MOLT-4 leukemia, in the experiment on A549 NSCLC and with COLO 205 colon was over 100 µM in each case.

For the compound `CCC1(O)C(=O)OCc2c1cc1n(c2=O)Cc2cc3c(N)cccc3nc2-1` (stereo not given), the TGI in the experiment on NCI/ADR-RES ovarian amounted to 0.228 µM; in the experiment with HT29 colon, 22.8 µM; with UACC-257 melanoma, 2.62 µM; with HOP-92 NSCLC, 0.931 µM; in the experiment with U251 CNS it was 1.21 µM; with OVCAR-5 ovarian it was 2.67 µM. Also, the TGI is 20 µM in the experiment with KM12 colon, 0.014 µM in the experiment on MOLT-4 leukemia, 10.8 µM in the experiment with A549 NSCLC and 6.41 µM with COLO 205 colon. Also, the GI50 in the experiment on OVCAR-5 ovarian was 0.106 µM.

Turning to `COc1cc(C(=O)O[C@H](C(N)=O)[C@]2(C)CO2)c2ccccc2c1`, the GI50 in the experiment with NCI/ADR-RES ovarian was 12.3 µM; in the experiment on HT29 colon it was 13.7 µM; in the experiment with UACC-257 melanoma it was 31.8 µM; in the experiment with HOP-92 NSCLC, 20.3 µM; in the experiment with U251 CNS it was 18.6 µM; with OVCAR-5 ovarian, 11.5 µM. Further, the GI50 in the experiment on KM12 colon was 15.6 µM; in the experiment with MOLT-4 leukemia, 17 µM; in the experiment with A549 NSCLC, 15.4 µM; in the experiment with COLO 205 colon it was 16.6 µM. The TGI in the experiment on NCI/ADR-RES ovarian is 30.3 µM; in the experiment on HT29 colon, 27.9 µM; in the experiment on UACC-257 melanoma it was over 100 µM; with HOP-92 NSCLC, 50.6 µM; in the experiment with U251 CNS it was 35.4 µM; in the experiment with OVCAR-5 ovarian, 33.1 µM. Also, the TGI in the experiment with KM12 colon amounted to 32.4 µM; in the experiment on MOLT-4 leukemia, 48.9 µM; in the experiment with A549 NSCLC it was 73 µM; in the experiment with COLO 205 colon, 39.7 µM.
